Here are results for 27 compounds from US20160375042A1, “USE OF CAMPTOTHECIN DERIVATIVE IN PREPARING PHARMACEUTICAL USED FOR TREATING MULTIPLE MYELOMA” (priority 2014, published 2016).

The nature of data set [1]: Water-solubility test of compounds of Formula II and Formula IV. It is filed as physicochemical. The following applies: the C-20 phosphite salt (Formula II) itself, read-out: Water-solubility of Comp of Formula II.
Data set [2] concerns S1 and S1-M1-80 (characteristic expression of ABCG2/BCRP). As to the kind of experiment: Anti-drug resistance test (MTT, resistance index). To be noted: S1-M1-80 (ABCG2/BCRP) versus S1 cells, 72 h, from IC50. The data set is classed as cell-based. Here is the method:
Logarithmic growth phase S1 and S1-M1-80 (characteristic expression of ABCG2/BCRP) were prepared as cell suspension of 2.5×10^4 cells/ml and 6×10^4 cells/ml, and were seeded in into 96-well plates with 0.19 ml/well. After incubating in cell incubator for 24 hours at 37° C., 5% CO2, sample solutions in various concentrations were added at 0.01 ml/well. Stroke-physiological saline solution is used as control well. Each treatment is conducted in 3 parallel wells. The drugs were added and incubated additional 72 h hours. And 5 mg/ml of MTT is added at 0.02 ml/well before four hours of the end the incubation. The culture liquid is removed at the end of incubation. Each well was added 0.1 ml of DMSO and OD values were measured at wavelength of 540 nm and reference wavelength of 655 nm. The experiment was repeated three times. Equation 1 is used to calculate cell growth inhibition rate (IR); and Equation 2 is used to calculate resistance index. Bliss method is used to calculate the 50% inhibitory concentration (IC50).

In data set [3] the test system is human multiple myeloma cells NCI-H929 xenografts. The data set can be described thus: Tumor inhibitory effect on multiple myeloma cells NCI-H929 xenografts in nude mice. The data set is classed as in vivo, BALB/c nude mouse. Here is the method:
Multiple myeloma cells were routinely passaged in vitro, inoculated in 40 6-7-week-old BALB/c nude mouse, each mouse was subcutaneously injected human multiple myeloma cells NCI-H929 at its right axillary. Weighed after two days. The mice were randomly divided into five groups, eight in each group. Each group was dosed as follows: • i. physiological saline control group • ii. Topotecan positive control group, 2 mg/kg, once every 4 days, intraperitoneal injection • iii. WQ1001, high-dose group, 35 mg/kg, once every 4 days, intraperitoneal injection • iv. WQ1001, middle dose group, 25 mg/kg, once every 4 days, intraperitoneal injectionv. v. WQ1001, low dose group, 18 mg/kg, once every 4 days, intraperitoneal injection
Body weight(BW) as well as long diameter and short diameter of tumors were measured every two days. Tumor volume was calculated according to the Equation 1. On the 11th day after inoculation, the mice were weighed, long diameter and short diameter of tumors were measured, and relative tumor volume (RTV) was calculated according to Equation 2. Mice were sacrificed by cervical dislocation and the tumor mass was stripped and weighed. Inhibition rate (IR) was calculated according to the Equation 3. RTV and tumor weight (TW) for each group were analyzed through T-test.

Setting [4] is: Topotecan 2 mg/kg, once every 4 days, intraperitoneal, 11th day.
The mark [5] stands for this setting: Topotecan 2 mg/kg, once every 4 days, intraperitoneal, end (11th day after inoculation).
Where [6] appears, read: Topotecan 2 mg/kg, once every 4 days, intraperitoneal, initial.

Where only a bound is given, the exact number is not on record here.

Broadly, the solubility is how much of the substance goes into solution per volume. For the compound `CCc1c2c(nc3ccc(Br)cc13)-c1cc3c(c(=O)n1C2)COC(=O)[C@@]3(CC)O[PH](=O)[O-].[Na+]` [WQ1110], the solubility in data set [1] is over 10000 µg/mL.

With `CC[C@@]1(O[PH](=O)[O-])C(=O)OCc2c1cc1n(c2=O)Cc2c-1nc1ccc(C)cc1c2OC.[Na+]` [WQ1123], the solubility in data set [1] was over 10000 µg/mL.

On to `CCCCc1ccc2nc3c(c(OC)c2c1)Cn1c-3cc2c(c1=O)COC(=O)[C@@]2(CC)O[PH](=O)[O-].[Na+]` [WQ1126], for which the solubility in data set [1] was over 10000 µg/mL.

For the compound `CCc1c2c(nc3ccc(C)cc13)-c1cc3c(c(=O)n1C2)COC(=O)[C@@]3(CC)O[PH](=O)[O-].[Na+]` [WQ1108], the solubility in data set [1] was over 10000 µg/mL. The Resistance index in data set [2] is given as 38.

With `CCc1c2c(nc3cc4c(cc13)OCCO4)-c1cc3c(c(=O)n1C2)COC(=O)[C@@]3(CC)O[PH](=O)[O-].[Na+]` [WQ1103], the solubility in data set [1] is over 10000 µg/mL.

`CC[C@@]1(O[PH](=O)[O-])C(=O)OCc2c1cc1n(c2=O)Cc2cc3cc(C)ccc3nc2-1.[Na+]` [WQ1118]: the solubility in data set [1] is over 10000 µg/mL. In addition, in data set [2], the Resistance index came to 67.

In the case of `CC[C@@]1(O[PH](=O)[O-])C(=O)OCc2c1cc1n(c2=O)Cc2cc3cc(Cl)ccc3nc2-1.[Na+]` [WQ1117], the solubility in data set [1] was over 10000 µg/mL. In data set [2], this compound registered a Resistance index of 9.

Regarding `CCc1ccc2nc3c(cc2c1OC)Cn1c-3cc2c(c1=O)COC(=O)[C@@]2(CC)O[PH](=O)[O-].[Na+]` [WQ1124], the solubility in data set [1] was over 10000 µg/mL.

`CC[C@@]1(O[PH](=O)[O-])C(=O)OCc2c1cc1n(c2=O)Cc2cc3c(Cl)c4c(cc3nc2-1)OCO4.[Na+]` [WQ1106]: the solubility in data set [1] is over 10000 µg/mL.

For `CC[C@@]1(O[PH](=O)[O-])C(=O)OCc2c1cc1n(c2=O)Cc2cc3cc4c(cc3nc2-1)OCO4.[Na+]` [WQ1104], the solubility in data set [1] was over 10000 µg/mL.

As for `CCc1c2c(nc3ccccc13)-c1cc3c(c(=O)n1C2)COC(=O)[C@@]3(CC)O[PH](=O)[O-].[Na+]` [WQ1107], the solubility in data set [1] was over 10000 µg/mL.

Consider `CC[C@@]1(O[PH](=O)[O-])C(=O)OCc2c1cc1n(c2=O)Cc2c-1nc1ccccc1c2CC[Si](C)(C)C.[Na+]` [WQ1115], for which the solubility in data set [1] is over 10000 µg/mL. This compound also registered a Resistance index in data set [2] of 25.

With `CCCCc1ccc2nc3c(cc2c1)Cn1c-3cc2c(c1=O)COC(=O)[C@@]2(CC)O[PH](=O)[O-].[Na+]` [WQ1121], the solubility in data set [1] was over 10000 µg/mL.

Consider `CCc1c2c(nc3ccc(Cl)cc13)-c1cc3c(c(=O)n1C2)COC(=O)[C@@]3(CC)O[PH](=O)[O-].[Na+]` [WQ1109], for which, in data set [1], the solubility is over 10000 µg/mL.

Consider `CCc1c2c(nc3cc(Cl)c(Cl)cc13)-c1cc3c(c(=O)n1C2)COC(=O)[C@@]3(CC)O[PH](=O)[O-].[Na+]` [WQ1113], for which, in data set [1], the solubility is over 10000 µg/mL.

For the compound `CC[C@@]1(O[PH](=O)[O-])C(=O)OCc2c1cc1n(c2=O)Cc2c-1nc1ccccc1c2/C=N/OC(C)(C)C.[Na+]` [WQ1114], the solubility in data set [1] is over 10000 µg/mL. In data set [2], this compound showed a Resistance index of 19.

For `CC[C@@]1(O[PH](=O)[O-])C(=O)OCc2c1cc1n(c2=O)Cc2c-1nc1ccccc1c2OC.[Na+]` [WQ1122], the solubility in data set [1] was over 10000 µg/mL. The Resistance index in data set [2] is reported as 5.

Turning to `CC[C@@]1(O[PH](=O)[O-])C(=O)OCc2c1cc1n(c2=O)Cc2c-1nc1ccccc1c2[Si](C)(C)C(C)(C)C.[Na+]` [WQ1116], the solubility in data set [1] is over 10000 µg/mL. This compound also had a Resistance index in data set [2] of 13.

Turning to `CCc1c2c(nc3cc4c(cc13)OCO4)-c1cc3c(c(=O)n1C2)COC(=O)[C@@]3(CC)O[PH](=O)[O-].[Na+]` [WQ1105], the solubility in data set [1] was over 10000 µg/mL. The same compound returned a Resistance index in data set [2] of 20.

For the compound `CCCc1ccc2nc3c(c(OC)c2c1)Cn1c-3cc2c(c1=O)COC(=O)[C@@]2(CC)O[PH](=O)[O-].[Na+]` [WQ1125], the solubility in data set [1] was over 10000 µg/mL.

`CC[C@@]1(O[PH](=O)[O-])C(=O)OCc2c1cc1n(c2=O)Cc2cc3cc4c(cc3nc2-1)OCCO4.[Na+]` [WQ1102]: the solubility in data set [1] was over 10000 µg/mL. This compound registered a Resistance index in data set [2] of 15.

On to `CCc1ccc2nc3c(cc2c1)Cn1c-3cc2c(c1=O)COC(=O)[C@@]2(CC)O[PH](=O)[O-].[Na+]` [WQ1119], for which the solubility in data set [1] is over 10000 µg/mL.

`CCCc1ccc2nc3c(cc2c1)Cn1c-3cc2c(c1=O)COC(=O)[C@@]2(CC)O[PH](=O)[O-].[Na+]` [WQ1120]: the solubility in data set [1] was over 10000 µg/mL.

As to `CC[C@@]1(O)C(=O)OCc2c1cc1n(c2=O)Cc2cc3c(CN(C)C)c(O)ccc3nc2-1` [Topotecan, reference compound], the “anti-tumor effect on NCI-H929 xenografts in nude mice (in words)” value in data set [3] (2 mg/kg) is “no significant anti-tumor effect”. In addition, in data set [3] (setting [4]), the “IR By RTV %” value is 37.3%; the “IR By TW %” value is listed as 52.0%; the “RTV (X ± SD)” value was 25.3 ± 14.8; the “TW (X ± SD, g)” value is recorded as 0.71 ± 0.44 g. Besides, in data set [3] (setting [5]), the “Bw (X ± SD, g) end” value is reported as 19.2 ± 1.3 g and the “TV (X ± SD, mm^3) End” value was 1123.2 ± 608.9 mm^3. In addition, in data set [3] (setting [6]), the “Bw (X ± SD, g) initial” value is given as 17.2 ± 1.0 g and the “TV (X ± SD, mm^3) initial” value came to 45.9 ± 6.0 mm^3. In data set [2], the Resistance index turned out to be 210.

Turning to `CCc1c2c(nc3cc(F)c(C)cc13)-c1cc3c(c(=O)n1C2)COC(=O)[C@@]3(CC)O[PH](=O)[O-].[Na+]` [WQ1112], the solubility in data set [1] was over 10000 µg/mL.

As to `CCc1c2c(nc3cc(F)c(F)cc13)-c1cc3c(c(=O)n1C2)COC(=O)[C@@]3(CC)O[PH](=O)[O-].[Na+]` [WQ1111], the solubility in data set [1] was over 10000 µg/mL. This compound gave a Resistance index in data set [2] of 7.

For the compound `CCc1c2c(nc3ccc(O)cc13)-c1cc3c(c(=O)n1C2)COC(=O)[C@]3(O)CC` [SN38, reference compound], in data set [2], the Resistance index came to 290.
